Publication PMC4452638, “Synthesis and preclinical evaluation of DOTAGA-conjugated PSMA ligands for functional imaging and endoradiotherapy of prostate cancer” (EJNMMI Research, 2014)

Legend:
[1] = Determination of lipophilicity (shake flask, n-octanol/PBS); format: physicochemical
Procedure: To a solution of 0.5 to 1 MBq of radiolabelled peptide in 500 μl of phosphate-buffered saline (PBS, pH 7.4), 500 μl of n-octanol was added (n = 6). Vials were vortexed vigorously for 3 min. To achieve quantitative phase separation, the vials were centrifuged at 6,000 g for 5 min in a Biofuge 15 (Heraeus Sepatech, Osterode, Germany). The activity concentrations in 100 μl-samples of both the aqueous and the organic phase were measured in a γ-counter. Both the partition coefficient P(o/w), which is defined as the molar concentration ratio of a single species A between n-octanol and water at equilibrium, and logP(o/w), which is an important parameter used to characterize lipophilicity of a compound, were calculated.
The partition coefficient logP between n-octanol and PBS was determined for the compounds listed in Table 3 using the shake flask method. All compounds are highly hydrophilic, with the DOTAGA compounds being up to one order of magnitude more hydrophilic than the corresponding DOTA analogues. Amongst all compounds tested, [^68Ga]HBED-CC-Ahx-KuE was the most hydrophilic compound.

[2] = In vivo metabolite analysis by radio-HPLC; conditions: CD-1 nu/nu mice, 0.5 h p.i.
Procedure: ^177Lu-10 and ^177Lu-11 were incubated in 80 μL of human serum (37°C) and 80 μL 0.4 M DTPA solution (RT), respectively and after 1, 24 and 48 h, the stability was determined by TLC analysis. The ^68Ga-labelled tracers (40 to 45 MBq) were injected into the tail vein of CD-1 nu/nu mice. The animals were sacrificed after 30 min, and urine, blood and kidney samples were taken. The kidney was frozen in liquid nitrogen, homogenized with a ball mill and extracted with 0.2 to 1 mL PBS containing 200 nmol 2-(phosphonomethyl)pentane-1,5-dioic acid (PMPA). The suspension was first centrifuged (15,000 g), and after ultrafiltration, the extracts were analysed by RP-HPLC. The blood samples were centrifuged to separate the plasma from the blood cells. Plasma proteins were removed by precipitation with acetonitrile (10 min, 4°C) and subsequent centrifugation and ultrafiltration. The blood extract was also analysed by RP-HPLC.
To investigate the influence of the amino acid composition of the spacer (KFF vs kff) on the metabolic stability in vivo, tissue homogenates and body fluids of mice injected with ^68Ga-11 and ^68Ga-12 were analysed by radio-HPLC. Extraction efficiencies from the blood and from the kidney were 56% and 43% for ^68Ga-11 and 61% and 62% for ^68Ga-12, respectively.

[3] = system: PSMA-expressing LNCaP cells; test: Internalization studies / cell binding in LNCaP cells; format: cell-based, human; conditions: 68Ga compounds, c = 0.2 nM, 37°C, 1 h, 125,000 cells/well, corrected for unspecific binding
Procedure: Cell culture: PSMA^+ LNCaP cells (CLS: 300265) were grown in DMEM/Nutrition Mix F-12 with Glutamax-I (1:1) (Invitrogen, Life Technologies, Darmstadt, Germany) supplemented with 10% FCS. Cultures were maintained at 37°C in a 5% CO2/humidified air atmosphere. One day prior to the experiment, cells were harvested using Trypsin/EDTA (0.05% and 0.02%) in PBS, centrifuged and resuspended with culture medium. For cell counting, a Countesse automated cell counter (Invitrogen, Carlsbad, USA) was used. All in vitro binding and internalization studies were performed using live cells seeded 1 day prior to the experiment. For IC50 determination, 150,000 cells/mL were transferred to 24-well plates (1 mL/well), and for internalization studies, 125,000 cells/mL were transferred into PLL-coated 24-well plates.
Internalization studies: The culture medium was removed, and the cells were washed once with 500 μL DMEM-F12 (5% BSA) before being left to equilibrate in 200 μL DMEM-F12 (5% BSA) at 37°C for a minimum of 15 min. Then, 25 μL (per well) of either DMEM-F12 (5% BSA) or of a 100-μM PMPA solution (blocking) was added, followed by the addition of 25 μL of ^68Ga/^177Lu-labelled PSMA ligand. The final radioligand concentration was 0.2/0.5 nM in all internalization assays. To determine internalization kinetics, cells were then incubated at 37°C for 5, 15, 30 and 60 min, respectively. Experiments were carried out in triplicate for each time point (control and blocking). Incubation was terminated by placing the plate on ice for approximately 1 min and by subsequent removal of the incubation medium. Cells were thoroughly rinsed with 250 μL of PBS. The wash medium was combined with the supernatant of the previous step. This fraction represents the amount of free radioligand. To remove receptor surface bound radioactivity, the cells were then incubated for 10 min with 250 μL of ice cold PMPA solution (10 μM in PBS). After removal of the supernatant, the cells were thoroughly rinsed with another 250 μL of ice cold PBS. Both fractions were combined. The internalized activity was released by incubation with 250 μL of 1 N NaOH, transferred to vials and combined with 250 μL of 1 N NaOH used for rinsing the wells. Quantification of the amount of free, PMPA-releasable and internalized activity was performed in a γ-counter.
The cellular uptake and internalization kinetics of the different ^68Ga- and ^177Lu-labelled PSMA ligands was determined using PSMA-expressing LNCaP cells. In the case of the ^68Ga-labelled compounds, the final peptide concentration in the assays was 0.2 nM. […] All internalization studies were accompanied by reference studies using ([^125I]I-BA)KuE (c = 0.2 nM). This experimental setup allows data normalization and eliminates the influence of cell count and cell viability on absolute cellular tracer uptake. […] Furthermore, to be able to discriminate between total cellular activity (sum of membrane associated and internalized activity) and internalized activity, all incubations were followed by a washing step with 10 μM PMPA at 4°C to remove specifically cell-surface bound radioligand by displacement.

[4] = system: LNCaP tumour xenograft; test: Biodistribution in LNCaP-tumour-bearing mice; format: in vivo; conditions: LNCaP-tumour bearing CD-1 nu/nu mice, 1 h p.i.
Procedure: All animal experiments were conducted in accordance with general animal welfare regulations in Germany (Deutsches Tierschutzgesetz, approval #55.2-1-54-2532-71-13). The prostate cancer cell line LNCaP was suspended 1/1 in serum-free medium and Matrigel (BD Biosciences, Germany) and approximately 10^7 cells in 200 μL were inoculated subcutaneously on the right shoulder of 6 to 8 weeks old CD-1 nu/nu mice (Charles River Laboratories). Tumours were grown for 2 to 4 weeks (males) and 4 to 6 weeks (females) to reach 4 to 8 mm in diameter.
Biodistribution: The ^68Ga-labelled PSMA ligands (approximately 7 to 15 MBq, 0.1 to 0.2 nmol) were injected into the tail vein of isoflurane anesthetized animals. The organ distribution was examined 1 h p.i. and quantified in a γ-counter.
A comparison of the biodistribution of compounds ^68Ga-11, ^68Ga-12 and the reference [^68Ga]HBED-CC-Ahx-KuE in LNCaP-tumour-bearing CD-1 nu/nu mice (1 h p.i.) is shown in Figure 7.

Substance | log P (o/w) ([1]; n-octanol/PBS pH 7.4, mean ± SD (n = 6)) | Intact tracer in blood [2] [%] | Internalization (1 h) in % of ([125I]I-BA)KuE [3] [%] | Kidney accumulation [4] [% ID/g] | Tracer uptake into liver [4] [% ID/g] | Tracer uptake into lung [4] [% ID/g] | Tracer uptake into pancreas [4] [% ID/g] | Tracer uptake into spleen [4] [% ID/g] | Tumour-to-blood ratio [4] | Tumour-to-skeletal muscle ratio [4] | Uptake in gastrointestinal tract [4] [% ID/g] | Uptake into LNCaP tumour xenograft [4] [% ID/g] | log P (o/w) ([1]; n-octanol/PBS, listed for 11/12 but determined for the FFK analogue 11 only (footnote a))
[^68Ga]DOTAGA-FFK(Sub-KuE) [^68Ga-11] | −3.6 ± 0.1 | 21 | 28.4 ± 0.7 |  |  |  |  |  |  |  |  |  | 
[^68Ga]DOTAGA-ffk(Sub-KuE) [^68Ga-12] |  | 100 | 42.5 ± 1.7 | 96 ± 45 | 0.2 ± 0.04 | 1.1 ± 0.3 | 0.4 ± 0.1 | 5.5 ± 0.2 | 17.0 ± 0.5 | 19.8 ± 0.7 | < 0.5 | 5.2 ± 1.2 | −3.6 ± 0.1
